Test results taken from patent publication US20240383865A1, “HIGH-ENERGY-VIOLET-ABSORBING VINYLIC MONOMERS” (Alcon Inc., priority 2023, published 2024).
≈ marks a conversion by molar mass, not a printed value.

Legend:
Format in all cases: physicochemical
[1] = Absorption edge of germanium photoinitiators
[2] = UV/visible absorption spectra of dilute solutions (40 ppm, 1 cm cuvette); conditions: for UV/visible absorption profiles of UV28 and UV35 compared: 40 ppm, FIG. 3
[3] = Dissolution of benzotriazole monomer in lens formulations; conditions: for Dissolution in Lightstream formulation: formulations 6-1 (UV28) and 6-2 (UV35), mixing at room temperature then 40° C.; for Dissolution in thermally cured formulations: formulations 6-3 (UV28) and 6-4 (UV35), mixed at room temperature 1-2 hours
Experimental: All formulations in the amount of 10 g are mixed at room temperature for 1-2 hours. Following initial mixing, Lightstream formulations (6-1 and 6-2) are mixed for an additional 1-2 hours at 40° C. […] Both benzotriazoles-UV28 and UV35 dissolve in thermally cured formulations (6-3 and 6-4). Room temperature and refrigerated (3° C.) conditions are tested.

[4] = Solubility of HEVL-absorbing vinylic monomers in 1-propanol
Experimental: This example illustrates the correlation between the melting point and solubility of HEVL-absorbing vinylic monomers of
As anticipated, solubility in 1-propanol is improved, reaching >4.0 mg/ml (Table 1).

Row | solubility ([4]; organic solvent or mixture, read-out: Solubility in PrOH) | SMILES | Absorption edge [1] | Absorption Peak ([2]; 40 ppm in 1-propanol) | UV/visible absorption profiles of UV28 and UV35 compared [2] | Dissolution in Lightstream formulation [3] | Dissolution in thermally cured formulations [3] | Solubility in PrOH [4]
1 |  | C[CH2][Ge]([CH2]C)([C](=O)c1ccc(OC)cc1)[C](=O)c1ccc(OC)cc1 [BMBDE-Ge, Bis(4-methoxybenzoyl)diethylgermanium] | 470 nm |  |  |  |  | 
2 |  | CCc1ccccc1[C](=O)[Ge]([C](=O)c1ccccc1CC)([C](=O)c1ccccc1CC)[C](=O)c1ccccc1CC [TEB-Ge, tetrakis(2-ethylbenzoyl)-germanium] | 490 nm |  |  |  |  | 
3 |  | C=C(C)C(=O)OCCCOc1cc(-n2nc3ccc(Cl)cc3n2)c(O)c(C(C)(C)C)c1 [UV28, 2-{2′-Hydroxy-3′-tert-butyl-5′-[3′-methacryloyloxypropoxy]phenyl}-5-chloro-2H-benzotriazole, reference compound] |  | 364 nm | equivalent | does not dissolve | dissolve | 1500 µg/mL (≈ 3.38 mM)
4 | > 4000 µg/mL | C=C(C)C(=O)OCCOCCOc1cc(-n2nc3ccc(Cl)cc3n2)c(O)c(C(C)(C)C)c1 [UV35, 2-propenoic acid, 2-methyl-, 2-[2-[3-(5-chloro-2H-benzotriazol-2-yl)-5-(1,1-dimethylethyl)-4-hydroxyphenoxy]ethoxy]ethyl ester] |  |  | equivalent | dissolves completely | dissolve | >4000 µg/mL
